PMC10602174, “Simultaneous Inhibition of PI3K and PAK in Preclinical Models of Neurofibromatosis Type 2-related Schwannomatosis” (Research Square, 2023)

Key:
[1] = test system: HS01 cells (human MD-SC); test: Cell viability (CellTiter-Fluor) and Combenefit synergy, 10x10 matrix; type: cell-based; settings: HS01 72h, read-out: % Control cell viability
Protocol: (§1) Drugs used in this study are listed with their targets in Table S1. All drugs were obtained from SelleckChem (Houston, TX, USA), apart from (−)-B-Hydrastine (Santa Cruz Biotechnology, Dallas, TX, USA). Drugs were dissolved in DMSO (10 mM stock). MD-SCs were seeded in 384-well CellBind Corning plates at 1000 cells/well in phenol red-free media. After attachment, cells were treated with drugs at 10 concentrations in a 10×10 matrix. Mouse cells were treated for 48h and human cells for 72h prior to assessment of cell viability with CellTiter-Fluor Assay (Promega, Madison, WI, USA). All drugs were tested in at least two human MD-SC lines. Follow up testing was performed on a subset of combinations using the mouse MD-SC line. Matrix combination data was uploaded into the Combenefit software system to assess drug synergy using three methods (Loewe, Bliss, and HSA)([18]).

[2] = test system: HS03 cells (human MD-SC); test: as above; type: cell-based; settings: HS03 72h, read-out: % Control cell viability
Protocol: as §1

[3] = test system: MS01 cells (mouse MD-SC); test: as above; type: cell-based; settings: MS01 48h, read-out: % Control cell viability
Protocol: as §1

[4] = Pharmacokinetic study, plasma and sciatic nerve after single oral gavage; type: in vivo, NSG mice
Description: The UCF animal facility is accredited by the Association for Assessment and Accreditation of Laboratory Animal Care. A total of 50 six- to eight-week-old mice were used for pharmacokinetic studies. […] Drugs were delivered via 0.5% methylcellulose, 0.2% Tween 80, 10% DMSO vehicle. Ten mice (three per drug and one control receiving vehicle alone) were used at each time point. Collected samples were frozen and sent to Cyprotex (Watertown, MA, USA) for LC-MS/MS quantitation of drug levels. Pharmacokinetic calculations were performed using the PKSolver software. The plasma half-life (t½) was calculated as the time required to reduce by half the plasma concentration after reaching pseudo-equilibrium and is not the time required to eliminate half the administered dose. An additional LC-MS/MS analyses of a subset of the treated mice (see below) was conducted. […] Three mice from each treatment group were selected randomly at the end of the in vivo study to assess the levels of drug in plasma, intact control nerve, and tumor. Samples were collected 4h after the final oral gavage, frozen, and sent to Cyprotex for analysis.

[5] = test system: human MD-SCs (HS02, HS05); settings: human MD-SC lines, Incucyte
Protocol: Human HS11, HS01, HS02, HS13 and HS05 and mouse MTC-10 cells (1,000 cells/well) were seeded in growth medium in three replicate wells/condition of a 384-well CellBIND Corning plate. […] Wells were imaged using the Incucyte® S5 Live-Cell Analysis system (Sartorius) for 24–72h. Phase and green fluorescent images were collected every 2h and analyzed using the integrated basic analyzer software.

[6] = test system: mouse MD-SCs (MS01); test: Incucyte confluency and CC-3/7 assay; type: cell-based
[7] = test system: HS02 cells; test: Proteome Profiler Human Apoptosis Array; type: cell-based; settings: HS02, pictilisib 2.5 μM 6h vs vehicle
Protocol: (§2) Human HS02 MD-SCs and mouse MTC-10 (MS01) MD-SCs cell lines were used. […] Cells were lysed and procedure was performed according to the Proteome Profiler Human or Mouse Apoptosis Array Kit (Cat No: ARY009 for Human, Cat No: ARY031 for Mouse, Biotechne, Minneapolis, MA, USA). Arrays were visualized using the Jess System (Biotechne), densitometry was measured and normalized to reference spots using ImageJ Software (NIH, Bethesda, MD, USA). Calculations were carried out using Prism 9 Software (GraphPad, Boston, MA, USA).

[8] = test system: MS01 cells; test: Proteome Profiler Mouse Apoptosis Array; type: cell-based; settings: MS01, pictilisib 2.5 μM 6h vs vehicle
Protocol: as §2

[9] = test system: glioblastoma xenografts; parameters: method as in PMID 19584227; settings: cited from earlier work
[10] = test system: ovarian cancer xenografts; parameters: method as in PMID 19584227; settings: cited from earlier work
[11] = test system: patients with advanced solid tumors; settings: phase 1, advanced solid tumors; cited from earlier work
[12] = test system: estrogen receptor positive breast cancer patients; settings: addition of pictilisib to fulvestrant; cited from earlier work
[13] = test system: luminal B breast cancer; settings: adding pictilisib to anastrozole; cited from earlier work
[14] = test system: patients with advanced solid tumors; settings: pictilisib combined with the MEK inhibitor cobimetinib; cited from earlier work

CS(=O)(=O)N1CCN(Cc2cc3nc(-c4cccc5[nH]ncc45)nc(N4CCOCC4)c3s2)CC1 [Pictilisib]
viability at 0.03906 µM ([1]; single drug 39.06 nM): 88% | viability at 0.07813 µM ([1]; single drug 78.13 nM): 85% | viability at 0.15625 µM ([1]; single drug 156.25 nM): 78% | viability at 0.3125 µM ([1]; single drug 312.5 nM): 72% | viability at 0.625 µM ([1]; single drug 625 nM): 72% | viability at 1.25 µM ([1]; single drug 1250 nM): 66% | viability at 2.5 µM ([1]; single drug 2500 nM): 66% | viability at 5 µM ([1]; single drug 5000 nM): 64% | viability at 10 µM ([1]; single drug 10000 nM): 65% | viability at 0.03906 µM ([2]; single drug 39.06 nM): 93% | viability at 0.07813 µM ([2]; single drug 78.13 nM): 97% | viability at 0.15625 µM ([2]; single drug 156.25 nM): 94% | viability at 0.3125 µM ([2]; single drug 312.5 nM): 89% | viability at 0.625 µM ([2]; single drug 625 nM): 86% | viability at 1.25 µM ([2]; single drug 1250 nM): 79% | viability at 2.5 µM ([2]; single drug 2500 nM): 68% | viability at 5 µM ([2]; single drug 5000 nM): 72% | viability at 10 µM ([2]; single drug 10000 nM): 77% | viability at 0.03906 µM ([3]; single drug 39.06 nM): 81% | viability at 0.07813 µM ([3]; single drug 78.13 nM): 78% | viability at 0.15625 µM ([3]; single drug 156.25 nM): 70% | viability at 0.3125 µM ([3]; single drug 312.5 nM): 65% | viability at 0.625 µM ([3]; single drug 625 nM): 65% | viability at 1.25 µM ([3]; single drug 1250 nM): 54% | viability at 2.5 µM ([3]; single drug 2500 nM): 53% | viability at 5 µM ([3]; single drug 5000 nM): 50% | viability at 10 µM ([3]; single drug 10000 nM): 55% | Tmax ([4]; both sexes, NOD.Cg-Prkdcscid Il2rgtm1Wjl/SzJ (NSG), mouse, plasma, po, read-out: time of maximum plasma concentration): 1 h | penetration of blood-nerve barrier / detection in intact nerve ([4]; single agent, single oral gavage): penetrated the normal blood-nerve barrier | time of maximum nerve concentration ([4]; single agent, single oral gavage 75 mg/kg): 1 h | confluency [5]: significantly reduced confluency | CC-3/7 signal [6]: high CC-3/7 signal | confluency [6]: low confluency | CC-3, Bcl-2 and Bcl-x protein levels [7]: no difference | XIAP protein level [7]: significant increase | CC-3 protein level [8]: significant increase | anti-apoptotic proteins Bcl-2, Bcl-x and XIAP [8]: significant decrease | growth inhibition [9]: 98% | growth inhibition [10]: 80% | tolerability [11]: well tolerated | dose-limiting toxicity [12]: limited by toxicity | progression-free survival [12]: did not significantly improve progression-free survival | suppression of tumor cell proliferation [13]: significantly increased suppression of tumor cell proliferation | tolerability and efficacy [14]: limited tolerability and efficacy
